In publication PMC7990704 (Nature chemical biology, 2021):
Read-outs that look alike come from different tables or passages of the source. Blank lines part the entries; values can stand above or below the compound they belong to.

Columns and labels:
[1] = target: T1, Cdk2 (Homo sapiens, UniProt P24941, A93C/C118A/C177S/R157C)
[2] = target: pCdk4:cyclinD (Homo sapiens, UniProt P11802); assay: γ-33P radioactivity kinase assay with RB as substrate and 10 μM ATP; format: biochemical
[3] = test system: cells; conditions: cited from earlier work
[4] = test system: Cdk2; design: species or system Human
[5] = target: Cdk2 (Homo sapiens, UniProt P24941, A93C/C118A/C177S/S46C)
[6] = target: T1, Cdk2; format: binding

Sequence of pCdk4:cyclinD (P11802 whole entry): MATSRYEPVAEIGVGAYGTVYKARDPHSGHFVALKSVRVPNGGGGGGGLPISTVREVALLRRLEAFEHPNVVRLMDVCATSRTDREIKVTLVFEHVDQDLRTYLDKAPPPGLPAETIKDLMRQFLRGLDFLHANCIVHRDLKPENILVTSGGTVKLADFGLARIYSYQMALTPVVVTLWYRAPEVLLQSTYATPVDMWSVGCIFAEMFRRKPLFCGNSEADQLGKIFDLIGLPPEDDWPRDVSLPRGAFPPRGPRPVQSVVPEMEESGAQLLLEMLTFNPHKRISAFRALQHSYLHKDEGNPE
Sequence of pCdk4:cyclinD (P24385 whole entry partner): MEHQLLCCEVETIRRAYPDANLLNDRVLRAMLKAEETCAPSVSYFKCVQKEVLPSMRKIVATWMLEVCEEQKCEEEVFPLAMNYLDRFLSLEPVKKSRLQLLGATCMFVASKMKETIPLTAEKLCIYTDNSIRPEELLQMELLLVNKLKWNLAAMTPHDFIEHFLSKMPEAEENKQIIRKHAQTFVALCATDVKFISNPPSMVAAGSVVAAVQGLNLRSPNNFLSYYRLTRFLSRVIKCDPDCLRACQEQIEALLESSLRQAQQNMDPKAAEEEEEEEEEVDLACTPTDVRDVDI

SMILES: CCN1CCN(Cc2ccc(Nc3ncc(F)c(-c4cc(F)c5nc(C)n(C(C)C)c5c4)n3)nc2)CC1 [abemaciclib]
potency for Cdk4 compared with palbociclib or ribociclib [2]: greater potency | Cdk1 substrate phosphorylation in cells [3]: blocks Cdk1 substrate phosphorylation | cell cycle effect in cells [3]: triggers a G2 arrest

SMILES: CN1CC[C@H](c2c(O)cc(O)c3c(=O)cc(-c4ccccc4Cl)oc23)[C@H](O)C1 [flavopiridol]
conformational effect on the A-loop (DEER) [4]: promoted the Aloop-out2 subpopulation | conformational effect on the A-loop (DEER) [1]: increased the Aloop-out1 subpopulation | conformational effect on the αC-helix (DEER) [5]: population shifts toward the αC-in state | binding cooperativity between inhibitor and cyclin [6]: 50 fold

Further lines, with some results ahead:

conformational effect on the A-loop (DEER) ([1]; monomeric Cdk2, inhibitor 250 µM): promoted the Aloop-out state
SMILES: Nc1ncnc2c1ncn2[C@@H]1O[C@H](COP(=O)(O)OP(=O)(O)O)[C@@H](O)[C@H]1O [ADP]

effect on the Aloop-in/out equilibrium (FRET) ([6]; Fig. 4d): did not promote the Aloop-out state
SMILES: CC(=O)c1c(C)c2cnc(Nc3ccc(N4CCNCC4)cn3)nc2n(C2CCCC2)c1=O [palbociclib]
binding cooperativity with cyclin (in words) ([6]; Fig. 4d, cyclinA): lacked substantial binding cooperativity with cyclin

effect on the Aloop-in/out equilibrium (FRET) [6]: did not promote the Aloop-out state
SMILES: CN(C)C(=O)c1cc2cnc(Nc3ccc(N4CCNCC4)cn3)nc2n1C1CCCC1 [ribociclib]
binding cooperativity with cyclin (in words) [6]: lacked substantial binding cooperativity with cyclin
